Where two headings read alike, the source gives them in different places.
Tests used:
Assay type in all cases: cell-based, human
[1] = tested on: Focus; experiment: Glutamine transport assay (initial-rate uptake, kinetic analysis)
Protocol: (§1) Glutamine Transport Assays. Measurement of initial-rate glutamine uptake was carried out via the cluster-tray method originally described by Gazzola (21) as reported previously (6, 9). Briefly, after trypsinization hepatoma cells were plated at a density of 1×10^5 cells/well in 24-well culture plates (Costar Corp., Cambridge, Mass.) and allowed to grow to >80% confluence, typically one to two days later. For initial-rate measurements, the radiotracer utilized was L-[G-^3H] glutamine (Amersham Corp., Arlington Heights, Ill.) at 4 μCi/ml, in the presence of unlabeled L-glutamine at 50 μM. For kinetic studies, the amount of unlabeled glutamine in the transport buffer varied from 10 μM to 10 mM. All transport measurements were carried out at 37° C. and were terminated after 30 s by three rapid washes with an ice-cold phosphate-buffered saline solution. Intracellular radiolabeled glutamine was extracted with 0.2 ml/well of 0.2% sodium dodecyl sulfate (SDS) and 0.2 N NaOH; after 1 h, 0.1 ml of the lysate was neutralized with 10 μl of 2 N HCl and subjected to scintillation spectrophotometry in a Packard TopCount™ (Packard Instruments, Meriden, Conn.). The remaining lysate was utilized for the determination of cellular protein by the bicinchoninic acid (BCA) method (Pierce Chemical Co., Rockford, Ill.). Rates of glutamine transport were calculated from the cpm per sample, the specific activity of the uptake mix (in cpm/nmol) and normalized to cellular protein content in a Microsoft Excel® spreadsheet program. Transport values obtained in the absence of extracellular Na^+ (diffusion and Na^+-independent uptake) were subtracted from those in the presence of Na^+ (total uptake) to yield Na^+-dependent rates which are reported in units of nmol•mg^−1 protein•30 s^−1. All transport values depicted are the average±standard deviation of four separate determinations. Kinetic analysis of Eadie-Hofstee linearized transport data (v vs. v/[L-GLN]) was performed by regression analysis (Cricket Graph®, Computer Associates, Islandia, N.Y.). Nonlinear regression analysis was performed with DataDesk (Data Description, Inc. Ithaca, N.Y.) and Excel for two component Michaelis-Menten kinetics: v=((Vmax1×[S])/(Km1+[S])+(Vmax2×[S])/(Km2+[S])).
(§2) Therefore, two component nonlinear regression analyses were performed on the Na^+-dependent transport kinetic data, where they were adequately resolved into high and low affinity components in all cell lines under study. The results are graphically depicted in FIG. 1 as insets. […] Possibilities for each cell line will be offered discussion based on the molecular analyses described below.

[2] = tested on: Hep3B; experiment: as above
Protocol: as §1, §2

[3] = tested on: Huh-7; experiment: as above
Protocol: as §1, §2

[4] = tested on: PLC/PRF/5; experiment: as above
Protocol: as §1, §2

[5] = tested on: THLE-5B; experiment: Glutamine transport assay (inhibition and kinetic analysis)
Protocol: FIG. 1. Amino acid inhibition analysis of glutamine transport in the Hep3B, PLC/PRF/5 and Focus human hepatoma cell lines and the THLE-5B SV40-immortalized human liver epithelial cell line. The Na^+-dependent transport of 50 μM L-glutamine was measured as described in the Methods section in the absence or presence of the indicated unlabeled amino acids at 5 mM. Testing of cysteine (CYSH) required the presence of 5 mM dithiothreitol (DTT) as a reducing agent, so DTT was tested alone as well. Arrows indicate the relative transport rates for 50 μM L-glutamine in primary human adult (solid arrow) and fetal (open arrow) hepatocytes. The results represent the average±SD of four separate determinations (*p<0.010 versus control). The Eadie-Hofstee plots of the kinetic analyses are shown as an inset in each figure, with the dashed lines representing the resolved high and low affinity components of the composite data (solid line). The derived values of the kinetic constants for each component are given in the Results section.
as §1
It should be noted that extensive depletion of intracellular amino acid pools were not performed prior to transport measurements in these studies because we sought to assess glutamine uptake under more physiological conditions. […]

[6] = read-out: Km, high affinity component
[7] = read-out: Km, low affinity system
[8] = read-out: Km, high affinity system
[9] = read-out: Km, low affinity component

- Km [1, 6]: 122 µM
- Km [1, 7]: 1200 µM
- Km ([2]; Na+-dependent glutamine transport, read-out: Km, low affinity system): 1000 µM
- Km [2, 8]: 90 µM
- Km [3, 6]: 50 µM
- Km [3, 9]: 861 µM
- Km [4, 8]: 23 µM
- Km [4, 7]: 775 µM
- Km [5, 6]: 135 µM
- Km [5, 9]: 1300 µM
Structure (SMILES): NC(=O)CC[C@H](N)C(=O)O [glutamine, L-glutamine]
- Vmax, high affinity component [1]: 2.2 nmol•mg^−1 protein•30 s^−1
- Vmax, low affinity system [1]: 2.7 nmol•mg^−1 protein•30 s^−1
- Vmax, high affinity system [2]: 3.0 nmol•mg^−1 protein•30 s^−1
- Vmax, low affinity system [2]: 4.5 nmol•mg^−1 protein•30 s^−1
- Vmax, high affinity component [3]: 7.3 nmol•mg^−1 protein•30 s^−1
- Vmax, low affinity component [3]: 11.7 nmol•mg^−1 protein•30 s^−1
- Vmax, high affinity system [4]: 0.82 nmol•mg^−1 protein•30 s^−1
- Vmax, low affinity system [4]: 3.9 nmol•mg^−1 protein•30 s^−1
- Vmax, high affinity component [5]: 30.8 nmol•mg^−1 protein•30 s^−1
- Vmax, low affinity component [5]: 32.6 nmol•mg^−1 protein•30 s^−1

— US20060280725A1, “Compositions and methods of treating and diagnosing hepatoma” (priority 2003, published 2006)
